Target: T1, PD-1/PD-L1 protein/protein interaction (recombinant human PD-L1 protein (19-238), recombinant human PD-1 protein (25-167)) (Homo sapiens, UniProt Q9NZQ7)
T1 construct: Recombinant human PD-L1 protein (19-238) with a His-tag at the C-terminus; purchased AcroBiosystems PD1-H5229 (PD-L1-His); PD1-H5257 (PD-1-Fc)
Experiment: PD-1/PD-L1 Homogeneous Time-Resolved Fluorescence (HTRF) Binding Assay
Settings: 25° C., PBS buffer (pH 7.4), 40 minutes preincubation with inhibitors
Description: The assays were conducted in a standard black 384-well polystyrene plate with a final volume of 20 μL. Inhibitors were first serially diluted in DMSO and then added to the plate wells before the addition of other reaction components. The final concentration of DMSO in the assay was 1%. The assays were carried out at 25° C. in the PBS buffer (pH 7.4) with 0.05% Tween-20 and 0.1% BSA. Recombinant human PD-L1 protein (19-238) with a His-tag at the C-terminus was purchased from AcroBiosystems (PD1-H5229). Recombinant human PD-1 protein (25-167) with Fc tag at the C-terminus was also purchased from AcroBiosystems (PD1-H5257). PD-L1 and PD-1 proteins were diluted in the assay buffer and 10 μL was added to the plate well. Plates were centrifuged and proteins were preincubated with inhibitors for 40 minutes. The incubation was followed by the addition of 10 μL of HTRF detection buffer supplemented with Europium cryptate-labeled anti-human IgG (PerkinElmer-AD0212) specific for Fc and anti-His antibody conjugated to SureLight®-Allophycocyanin (APC, PerkinElmer-AD0059H). After centrifugation, the plate was incubated at 25° C. for 60 min. before reading on a PHERAstar FS plate reader (665 nm/620 nm ratio). Final concentrations in the assay were […], 10 nM PD-L1, 1 nM europium anti-human IgG and 20 nM anti-His-Allophycocyanin. IC50 determination was performed by fitting the curve of percent control activity versus the log of the inhibitor concentration using the GraphPad Prism 5.0 software.

T1 sequence (Q9NZQ7 19-238): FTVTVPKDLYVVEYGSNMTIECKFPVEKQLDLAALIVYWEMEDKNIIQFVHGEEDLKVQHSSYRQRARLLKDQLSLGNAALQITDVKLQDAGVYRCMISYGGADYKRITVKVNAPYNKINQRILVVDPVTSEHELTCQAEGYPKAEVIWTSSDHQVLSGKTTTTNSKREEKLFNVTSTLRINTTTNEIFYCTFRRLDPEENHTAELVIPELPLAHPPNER

IC50 [nM]	SMILES
≤ 10	Cn1cc(CNCCO)cc(C(=O)Nc2cccc(-c3cccc(Nc4nccc5cc(CN6CC(C(=O)O)C6)cnc45)c3Cl)c2Cl)c1=O [Example 17, 1-((8-(2,2′-dichloro-3′-(5-((2-hydroxyethylamino)methyl)-1-methyl-2-oxo-1,2-dihydropyridine-3-carboxamido)biphenyl-3-ylamino)-1,7-naphthyridin-3-yl)methyl)azetidine-3-carboxylic acid]
≤ 10	Cn1cc(CNCC(C)(C)O)cc(C(=O)Nc2cccc(-c3cccc(Nc4nccc5cc(CN6CC(C(=O)O)C6)cnc45)c3Cl)c2Cl)c1=O [Example 18, 1-((8-(2,2′-dichloro-3′-(5-((2-hydroxy-2-methylpropylamino)methyl)-1-methyl-2-oxo-1,2-dihydropyridine-3-carboxamido)biphenyl-3-ylamino)-1,7-naphthyridin-3-yl)methyl)azetidine-3-carboxylicacid]
≤ 10	Cc1c(Nc2nccc3cc(CNCCO)cnc23)cccc1-c1cccc(Nc2nccc3cc(CNCCO)cnc23)c1C [Example 19, 2,2′-(((((2,2′-dimethyl-[1,1′-biphenyl]-3,3′-diyl)bis(azanediyl))bis(1,7-naphthyridine-8,3-diyl))bis(methylene))bis(azanediyl))bis(ethan-1-ol)]
≤ 10	Cc1c(Nc2nccc3cc(CN4CC[C@@H](O)C4)cnc23)cccc1-c1cccc(Nc2nccc3cc(CN4CC[C@@H](O)C4)cnc23)c1C [Example 20, (3R,3′R)-1,1′-((((2,2′-dimethyl-[1,1′-biphenyl]-3,3′-diyl)bis(azanediyl))bis(1,7-naphthyridine-8,3-diyl))bis(methylene))bis(pyrrolidin-3-ol)]
≤ 10	Cc1c(Nc2nccc3cc(CNCCO)cnc23)cccc1-c1cccc(Nc2nccc3cc(CN4CC[C@@H](O)C4)cnc23)c1C [Example 21, (R)-1-((8-(3′-(3-((2-hydroxyethylamino)methyl)-1,7-naphthyridin-8-ylamino)-2,2′-dimethylbiphenyl-3-ylamino)-1,7-naphthyridin-3-yl)methyl)pyrrolidin-3-ol]
≤ 10	O[C@@H]1CCN(Cc2cnc3c(Nc4cccc(-c5cccc(Nc6nccc7cc(CN8CC[C@@H](O)C8)cnc67)c5Cl)c4Cl)nccc3c2)C1 [Example 22, (3R,3′R)-1,1′-((((2,2′-dichloro-[1,1′-biphenyl]-3,3′-diyl)bis(azanediyl))bis(1,7-naphthyridine-8,3-diyl))bis(methylene))bis(pyrrolidin-3-ol)]
≤ 10	Cc1c(Nc2nccc3cc(CN4CC[C@@H](O)C4)cnc23)cccc1-c1cccc(Nc2ncnc3cc(CN4CC[C@@H](O)C4)cnc23)c1C [Example 23, (R)-1-((4-(3′-(3-(((R)-3-hydroxypyrrolidin-1-yl)methyl)-1,7-naphthyridin-8-ylamino)-2,2′-dimethylbiphenyl-3-ylamino)pyrido[3,2-d]pyrimidin-7-yl)methyl)pyrrolidin-3-ol]
≤ 10	Cc1c(Nc2nccc3cc(CN4CC[C@@H](O)C4)cnc23)cccc1-c1cccc(Nc2ncnc3cc(CNCCO)cnc23)c1C [Example 24, (R)-1-((8-(3′-(7-((2-hydroxyethylamino)methyl)pyrido[3,2-d]pyrimidin-4-ylamino)-2,2′-dimethylbiphenyl-3-ylamino)-1,7-naphthyridin-3-yl)methyl)pyrrolidin-3-ol]
≤ 10	Cc1c(Nc2nccc3cc(CN4CC[C@@H](O)C4)cnc23)cccc1-c1cccc(Nc2ncnc3cc(CN(C)CCO)cnc23)c1C [Example 25, (R)-1-((8-(3′-(7-(((2-hydroxyethyl)(methyl)amino)methyl)pyrido[3,2-d]pyrimidin-4-ylamino)-2,2′-dimethylbiphenyl-3-ylamino)-1,7-naphthyridin-3-yl)methyl)pyrrolidin-3-ol]
≤ 10	Cc1c(Nc2nccc3cc(CN4CC[C@@H](O)C4)cnc23)cccc1-c1cccc(Nc2nccc3cc(CN4CC[C@@H](C(=O)N(C)C)C4)cnc23)c1C [Example 26, (R)-1-((8-(3′-(3-(((R)-3-hydroxypyrrolidin-1-yl)methyl)-1,7-naphthyridin-8-ylamino)-2,2′-dimethylbiphenyl-3-ylamino)-1,7-naphthyridin-3-yl)methyl)-N,N-dimethylpyrrolidine-3-carboxamide]
≤ 10	Cc1c(Nc2nccc3cc(CN4CC[C@@H](O)C4)cnc23)cccc1-c1cccc(Nc2ncnc3cc(CNC[C@H](C)O)cnc23)c1C [Example 27, (R)-1-((8-(3′-(7-(((S)-2-hydroxypropylamino)methyl)pyrido[3,2-d]pyrimidin-4-ylamino)-2,2′-dimethylbiphenyl-3-ylamino)-1,7-naphthyridin-3-yl)methyl)pyrrolidin-3-ol]
≤ 10	Cc1c(NC(=O)c2cc(CN3CC[C@@H](O)C3)cn(C)c2=O)cccc1-c1cccc(Nc2nccc3cc(CN4CC[C@@H](C(=O)O)C4)cnc23)c1C [Example 28, (R)-1-((8-(3′-(5-(((R)-3-hydroxypyrrolidin-1-yl)methyl)-1-methyl-2-oxo-1,2-dihydropyridine-3-carboxamido)-2,2′-dimethylbiphenyl-3-ylamino)-1,7-naphthyridin-3-yl)methyl)pyrrolidine-3-carboxylic acid]
≤ 10	Cc1c(Nc2nccc3cc(CN4CC[C@@H](O)C4)cnc23)cccc1-c1cccc(Nc2ncnc3cc(CNC[C@@H](C)O)cnc23)c1C [Example 29, (R)-1-((8-(3′-(7-(((R)-2-hydroxypropylamino)methyl)pyrido[3,2-d]pyrimidin-4-ylamino)-2,2′-dimethylbiphenyl-3-ylamino)-1,7-naphthyridin-3-yl)methyl)pyrrolidin-3-ol]
≤ 10	Cc1c(Nc2nccc3cc(CN4CC[C@@H](O)C4)cnc23)cccc1-c1cccc(Nc2ncnc3cc(CNCC(C)(C)O)cnc23)c1C [Example 30, (R)-1-((8-(3′-(7-((2-hydroxy-2-methylpropylamino)methyl)pyrido[3,2-d]pyrimidin-4-ylamino)-2,2′-dimethylbiphenyl-3-ylamino)-1,7-naphthyridin-3-yl)methyl)pyrrolidin-3-ol]
≤ 10	Cc1c(Nc2nccc3cc(CN4CC[C@@H](C(=O)O)C4)cnc23)cccc1-c1cccc(NC(=O)c2nc3c(n2C)CCN(C)C3)c1Cl [Example 31, (R)-1-((8-(2′-chloro-3′-(1,5-dimethyl-4,5,6,7-tetrahydro-1H-imidazo[4,5-c]pyridine-2-carboxamido)-2-methylbiphenyl-3-ylamino)-1,7-naphthyridin-3-yl)methyl)pyrrolidine-3-carboxylic acid]
≤ 10	Cc1c(Nc2nccc3cc(CN4CC[C@H](O)C4)cnc23)cccc1-c1cccc(NC(=O)c2nc3c(n2C)CCN(C)C3)c1Cl [Example 32, (S)—N-(2-chloro-3′-(3-((3-hydroxypyrrolidin-1-yl)methyl)-1,7-naphthyridin-8-ylamino)-2′-methylbiphenyl-3-yl)-1,5-dimethyl-4,5,6,7-tetrahydro-1H-imidazo[4,5-c]pyridine-2-carboxamide]
≤ 10	Cc1c(Nc2nccc3cc(CN4CC[C@@](C)(C(=O)O)C4)cnc23)cccc1-c1cccc(NC(=O)c2nc3c(n2C)CCN(C)C3)c1Cl [Example 33, (R)-1-((8-(2′-chloro-3′-(1,5-dimethyl-4,5,6,7-tetrahydro-1H-imidazo[4,5-c]pyridine-2-carboxamido)-2-methylbiphenyl-3-ylamino)-1,7-naphthyridin-3-yl)methyl)-3-methylpyrrolidine-3-carboxylic acid]
≤ 10	Cc1c(Nc2nccc3cc(CN4CC[C@@H](C(=O)O)C4)cnc23)cccc1-c1cccc(-c2nc3c(s2)CNCC3)c1C [Example 34, (R)-1-((8-((2,2′-dimethyl-3′-(4,5,6,7-tetrahydrothiazolo[5,4-c]pyridin-2-yl)-[1,1′-biphenyl]-3-yl)amino)-1,7-naphthyridin-3-yl)methyl)pyrrolidine-3-carboxylic acid]
≤ 10	Cc1c(Nc2nccc3cc(CN4CC[C@@H](O)C4)cnc23)cccc1-c1cccc(-c2nc3c(s2)CNCC3)c1C [Example 35, (R)-1-((8-((2,2′-dimethyl-3′-(4,5,6,7-tetrahydrothiazolo[5,4-c]pyridin-2-yl)-[1,1′-biphenyl]-3-yl)amino)-1,7-naphthyridin-3-yl)methyl)pyrrolidin-3-ol]
≤ 10	Cc1c(Nc2nccc3cc(CN4CC[C@H](O)C4)cnc23)cccc1-c1cccc(-c2nc3c(s2)CNCC3)c1C [Example 36, (S)-1-((8-((2,2′-dimethyl-3′-(4,5,6,7-tetrahydrothiazolo[5,4-c]pyridin-2-yl)-[1,1′-biphenyl]-3-yl)amino)-1,7-naphthyridin-3-yl)methyl)pyrrolidin-3-ol]
≤ 10	Cc1c(Nc2nccc3cc(CN4CC[C@@H](O)C4)cnc23)cccc1-c1cccc(-c2nc3c(o2)CN(C(=O)CN(C)C)C3)c1C [Example 37, (R)-2-(dimethylamino)-1-(2-(3′-((3-((3-hydroxypyrrolidin-1-yl)methyl)-1,7-naphthyridin-8-yl)amino)-2,2′-dimethyl-[1,1′-biphenyl]-3-yl)-4,6-dihydro-5H-pyrrolo[3,4-d]oxazol-5-yl)ethan-1-one]

Reference: patent publication US12466822B2, “Heterocyclic compounds as immunomodulators” (Incyte Corporation, priority 2016, dated 2025)
